Experimental data taken from PMC6099615, “Anti-glycation, Carbonyl Trapping and Anti-inflammatory Activities of Chrysin Derivatives” (Molecules : A Journal of Synthetic Chemistry and Natural …, 2018).
pIC50: −log10 of the molar value. Values after ≈ are worked out from the molar mass of the structure shown.

Legend:
[1] = test system: Amadori compound formation; experiment: Hemoglobin-δ-gluconolactone assay of Amadori compound formation; type: biochemical; parameters: inhibition rate of Amadori compound formation: dose or concentration left out as unconfirmed; details: for pIC50: early stage of AGE formation; for inhibitory activity on Amadori compound formation, fold higher than positive control AG: relative to Aminoguanidine hydrochloride (IC50 = 109.74 μM)
[2] = test system: NO production in LPS-induced RAW 264.7 cells; experiment: NO generation in LPS-induced RAW 264.7 cells (Griess); type: cell-based; details: 24 h
Experimental: The cytotoxicity of CS and derivatives on RAW 264.7 cells was examined using the MTS assay kit. Cells (1.6 × 10^4/well) were cultured in 96-well plates and treated with samples (10, 25, and 100 μM) for 12, 24, 48, and 72 h. After incubation, 20 μL/well of MTS solution was incubated for 90 min at 37 °C in a humidified 5% CO2 atmosphere. The optical density at 490 nm was measured three times using an EL-800 Universal microplate reader (Bio-Tek Instrument Inc., Winooski, VT, USA). Cell viability of the untreated group was set to 100%. RAW 264.7 cells were seeded into 12-well plates at 4 × 10^5-cells/well, and then incubated with LPS (1 μg/mL) and various concentrations of samples for 24 h. The concentration of nitric oxide (NO) in the medium was measured using the Griess reagent system, as described by the manufacturer. The production of NO was measured at 570 nm using an EL-800 Universal microplate reader (Bio-Tek Instrument Inc., Winooski, VT, USA), and was compared with a sodium nitrite standard calibration curve.

AGE formation = experiment: Bovine serum albumin-methylglyoxal assay on AGE formation; type: biochemical; details: BSA-methylglyoxal, 37 °C, 48 h
Experimental: Bovine serum albumin (50 mg/mL) was incubated at 37 °C for 48 h with methylglyoxal (100 mM) in sodium phosphate buffer (0.1 M, pH 7.4) containing 0.2 g/L NaN3 in the presence of various concentrations of the compounds (including a control).
(§1) This test was used to evaluate the ability of samples to inhibit cross-linking of the GK peptide in the presence of D-ribose using the method described by Hwang et al. The GK peptide (26.7 mg/mL) was incubated with D-ribose (200 mg/mL) in sodium phosphate buffer (0.5 M, pH 7.4) containing 0.2 g/L NaN3 under sterile conditions at 37 °C for 72 h. […] All reagents and samples were sterilized by filtration through […] membrane filters. The fluorescence intensity was measured at an excitation wavelength of 355 nm and an emission wavelength of 460 nm with a Luminescence spectrometer LS50B (Perkin-Elmer Ltd., Buckinghamshire, England). AG was used as a positive control.

AGEs cross-linking = experiment: N-acetyl-glycyl-lysine-methyl ester D-ribose assay on AGE cross-linking; type: biochemical; details: GK peptide-D-ribose, 37 °C, 72 h
Experimental: as §1

[3] = Water solubility analysis; type: physicochemical; details: for water solubility, fold higher than CS: relative to CS; for solubility at 1 h: thermodynamic from solid, distilled water, 37 °C, sonication 1 h
Experimental: CS and derivatives were dissolved in distilled water and incubated at 37 °C with sonication for 1 h to maximize solubility. After sonication, undissolved samples were eliminated by centrifugation (7000× g, 37 °C, 5 min). The supernatants were diluted in methanol and filtered through a 0.45 μm disposable syringe filter (Advantec, Dublin, CA, USA) to analyze the concentration of the samples using HPLC analysis.

| SMILES | inhibition rate of Amadori compound formation ([1]; dose-dependent) | pIC50 [1] | inhibitory activity on Amadori compound formation, fold higher than positive control AG [1] | inhibitory activity on Amadori compound formation, fold higher than CS ([1]; relative to CS) | inhibition of NO [2] | pIC50 (AGE formation) | pIC50 (AGEs cross-linking) | water solubility, fold higher than CS [3] | solubility at 1 h [3] | inhibitory activity on Amadori compound formation ([1]; up to a concentration of 10.0 mg/mL) |
| --- | --- | --- | --- | --- | --- | --- | --- | --- | --- | --- |
| CC(=O)Oc1cc(OC(C)=O)c2c(=O)cc(-c3ccccc3)oc2c1 [5,7-Di-O-acetylchrysin, 5,7-di-O-acetylchrysin] | 1.76–55.13% | 6.59 | 422.07 fold | 66.96 fold | concentration-dependent inhibition | 6.04 | 4.65 | 8.83 fold | 265 µM (≈ 89.7 µg/mL) |  |
| COc1cc(OC)c2c(=O)cc(-c3ccccc3)oc2c1 [5,7-Di-O-methoxychrysin, 5,7-di-O-methoxychrysin] |  | 5.10 | 13.92 fold |  |  | 4.38 | 4.40 |  | 11 µM (≈ 3.11 µg/mL) |  |
| CC(=O)Oc1cc(O)c2c(=O)cc(-c3ccccc3)oc2c1 [7-O-Acetylchrysin, 7-O-acetylchrysin] |  | 4.63 | 4.66 fold |  |  | 4.67 | < 2.70 | 2.87 fold | 86 µM (≈ 25.5 µg/mL) |  |
| COc1cc(O)c2c(=O)cc(-c3ccccc3)oc2c1 [7-O-Methoxychrysin, 7-O-methoxychrysin] |  | < 1.51 |  |  |  | < 3.70 | < 2.70 |  | 10 µM (≈ 2.68 µg/mL) | no inhibitory activities |
